According to patent US4180588A, “Immunosuppressant” (Mitsubishi Chemical Industries, Ltd., priority 1977, dated 1979):

Assays:
[1] = tested on: Adjuvant arthritis in rats; assay: Adjuvant arthritis in rats (hind foot volume); type: in vivo, Sprague-Dawley rats; conditions: day 1 until day 21
Experimental: Effect of N-(p-hydroxyphenyl)-L-glutamine on Adjuvant arthritis in rats
Sprague-Dawley rats weighing 150 to 180 g were randomized in 6 groups and kept in a controlled evironment for 2 weeks prior to use. They were fed a standard diet and were allowed to drink water freely ad libitum.
On day 0, each rat was injected in the planter region of the right hind paw with 0.05 ml Freund's Complete Adjuvant containing 6 mg/ml of heat killed Mycobacterium butyricum (Difco) in sterile paraffin oil.
The volume of the injected (right) and non-injected (left) feet up to a mark on the tibio-tarsal joint was measured by water over-flow method.
The sensitized rats were dosed subcutaneously from day 1 until day 21 with either 12.5, 25, or 50 mg/kg of N-(p-hydroxyphenyl)-L-glutamine (γ-GHB), 2.5 mg/kg of prednisolone, and vehicle for control group.

human lymphocytes = assay: Inhibition of blastogenesis of human lymphocytes induced by phytohemagglutinin (PHA), 3H-thymidine uptake; type: cell-based; conditions: for % Inhibition (3H-thymidine uptake by PHA-stimulated lymphocytes): 72 hours
Experimental: Inhibition of the blastogenesis of the human lymphocytes induced by phytohemagglutinin (PHA)
1.5×10^5 human lymphocytes in RPMI-1 640 medium (produced by GIBCO) supplemented with 10 wt. % fetal calf serum were incubated with 0.1 μl of PHA and in the presence or absence of N-(p-hydroxyphenyl)-L-glutamine (total volume: 0.1 ml) in a CO2 incubator at 37° C. for 72 hours. 0.1 μCi of ^3 H-thymidine was pulsed 7 hour before harvesting the cells. The lymphocytes were harvested and the radioactivity incorporated into the cells were counted.

[2] = tested on: plaque forming cells in the spleen; assay: Plaque forming cells in the spleen of mice immunized with sheep blood cells (modified Cunningham's method); type: in vivo, mice (ddY); conditions: for PFC (No. of PFC ± S.E.): 5 animals, day 4, untreated 163 ± 64
Daudi cells = assay: Growth inhibition of tissue-culture cells (Daudi cells), trypane blue dye exclusion; type: cell-based, human
Experimental: Growth inhibition of tissue-culture cells
2.6×10^5 /ml tissue culture cells (Daudi cells) derived from human lymphocytes in RPMI-1640 medium supplemented with 10% fetal calf serum were incubated with varied concentration of N-(p-hydroxyphenyl)-L-glutamine for 72 hours at 37° C. The number of live cells was determined by the trypane blue dye exclusion test.

[3] = tested on: nucleated cells in the spleen; assay: Total number of nucleated cells in the spleen of immunized mice; type: in vivo, mice (ddY); conditions: for Number of nucleated cells (No. of lymphocytes ± S.E.): 5 animals, day 4, untreated 228 ± 18.8
Experimental: Effect of N-(p-hydroxyphenyl)-L-glutamine on the total number of nucleated cells and the plaque forming cells in the spleen
The mice (ddY, 18 to 21 g) were intraperitoneally immunized with 1×10^8 sheep blood cells. The N-(p-hydroxyphenyl)-L-glutamine was administered subcutaneously on day 0, 1, 2 and 3. On day 4, the mice were sacrificed and the plaque forming cells in the spleen were determined according to the modified Cunningham's method (H. Fujiwara et al.; Experimental Method of Immunology Vol. 5, 1475 (1975)).
Total number of the nucleated cells in the spleen were counted after lysing erythrocytes with 0.5% acetic acid.

mice = assay: Acute toxicity (mortality 7 days after intraperitoneal administration); type: in vivo
Source text: (§1) The varied doses of N-(p-hydroxyphenyl)-L-glutamine in an aqueous 5% sodium carboxymethyl cellulose solution were intraperitoneally administered to the mice. The mortality 7 days after the administration was as follows: […]

[4] = as above; type: in vivo, mice; conditions: mouse, in vivo, ip, mice, intraperitoneal
Source text: as §1

murine spleen cells = assay: Cytotoxic effect on the murine spleen cells, trypane-blue dye exclusion; type: cell-based; conditions: within the range of the concentration tested
Experimental: (§2) Cytotoxic effect on the murine spleen cells 1×10^6 /ml murine spleen cells in RPMI-1640 medium supplemented with 5% fetal calf serum were incubated with a varied concentration of N-(p-hydroxyphenyl)-L-glutamine for 48 hours at 37° C. And then the viability of the cells was determined by the trypane-blue dye exclusion test.

[5] = as above; type: cell-based; conditions: mouse, spleen cells, 48 hours, 86 at 0
Experimental: as §2

skin allograft = assay: Prolongation of the skin allograft in rat (Fisher to Wister/MK); type: in vivo; conditions: 25 mg/kg intraperitoneally everyday from day -7 until rejection; controls 9.0±1.6 days
Experimental: Prolongation of the skin allograft in rat Wister/MK rats received skin allografts from Fisher rats on day 0.
Recipient rats in the treatment group were administered intraperitoneally 25 mg/kg of N-(p-hydroxyphenyl)-L-glutamine dissolved in a phosphate buffer everyday from day - 7 until the day on which the rejection was observed. Rats treated with the compound rejected their grafts in 15.0±1.7 days, while controls rejected in 9.0±1.6 days.

[6] = 12.5, 25 or 50 mg/kg subcutaneously
[7] = 50 mg/kg subcutaneously on day 0, 1, 2 and 3
[8] = 100 mg/kg subcutaneously on day 0, 1, 2 and 3

N[C@@H](CCC(=O)Nc1ccc(O)cc1)C(=O)O
left (non-injected) hind foot swelling (in words) [1, 6]: reduced significantly | right (injected) hind foot swelling (in words) [1, 6]: reduced significantly | inhibition of PHA-induced blastogenesis (in words) (human lymphocytes; 40 μg/ml): complete inhibition | inhibition of PHA-induced blastogenesis, delayed addition (in words) (human lymphocytes; 40 μg/ml added 0, 12, 24 and 48 hours after PHA stimulation): almost complete inhibition | % Inhibition (3H-thymidine uptake by PHA-stimulated lymphocytes) (human lymphocytes; 0.04 μ/ml): 14% | % Inhibition (3H-thymidine uptake by PHA-stimulated lymphocytes) (human lymphocytes; 0.4 μ/ml): 27% | % Inhibition (3H-thymidine uptake by PHA-stimulated lymphocytes) (human lymphocytes; 4 μ/ml): 67% | % Inhibition (3H-thymidine uptake by PHA-stimulated lymphocytes) (human lymphocytes; 40 μ/ml): 99% | production of plaque forming cells (in words) ([2]; 50 mg/kg): significantly inhibited | PFC (No. of PFC ± S.E.) [2, 7]: 65.6 ± 9.5 × 10^3 /spleen | PFC (No. of PFC ± S.E.) [2, 8]: 65.3 ± 14.0 × 10^3 /spleen | inhibition at 40 µg/mL (Daudi cells; Homo sapiens, Daudi, 40 μg/ml): ~90% | live cell growth (% of control) at 400 µg/mL (Daudi cells; Homo sapiens, Daudi, 400 μg/ml, 72 hours, read-out: Inhibition (%) (Control equals 100)): 0% | growth inhibition with delayed addition (in words) (Daudi cells; addition delayed from 24 hours to 48 hours after start of incubation): gradually decreased | growth inhibition with exposure for first 24 hours only (in words) (Daudi cells; present for first 24 hours of 72 hours incubation): did not exhibit any growth inhibition | total number of the nucleated cells in the spleen (in words) ([3]; 50 mg/kg): did not affect | Number of nucleated cells (No. of lymphocytes ± S.E.) [3, 7]: 176 ± 13.7 × 10^6 /spleen | Number of nucleated cells (No. of lymphocytes ± S.E.) [3, 8]: 226 ± 39.1 × 10^6 /spleen | No. of dead mice/No. of treated mice (mice; 1.768 g/kg intraperitoneally): 0/5 | No. of dead mice/No. of treated mice (mice; 2.5 g/kg intraperitoneally): 0/5 | No. of dead mice/No. of treated mice (mice; 3.535 g/kg intraperitoneally): 1/5 | No. of dead mice/No. of treated mice (mice; 5 g/kg intraperitoneally): 2/5 | No. of dead mice/No. of treated mice (mice; 10 g/kg intraperitoneally): 1/1 | LD50 at 168 h [4]: > 5000 mg/kg | cytotoxic effect on the murine spleen cells (in words) (murine spleen cells): did not exhibit any cytotoxic effect | viability at 48 h ([5]; concentration 10 (unit inferred)): 83% | viability at 48 h ([5]; concentration 100 (unit inferred)): 87% | time to rejection of skin graft (skin allograft): 15.0 ± 1.7 days

C[C@]12C=CC(=O)C=C1CC[C@@H]1[C@@H]2[C@@H](O)C[C@@]2(C)[C@H]1CC[C@]2(O)C(=O)CO [prednisolone, reference compound]
left (non-injected) hind foot swelling (in words) ([1]; 2.5 mg/kg subcutaneously): reduced significantly | right (injected) hind foot swelling (in words) ([1]; 2.5 mg/kg subcutaneously): reduced significantly

Sc1ncnc2nc[nH]c12 [6-Mercaptopurine, reference compound]
PFC (No. of PFC ± S.E.) ([2]; 25 mg/kg): 18.8 ± 7.9 × 10^3 /spleen | Number of nucleated cells (No. of lymphocytes ± S.E.) ([3]; 25 mg/kg): 78 ± 9.5 × 10^6 /spleen
